Measured values taken from ChEMBL document CHEMBL1944624, “Synthesis and antimalarial and antituberculosis activities of a series of natural and unnatural 4-methoxy-6-styryl-pyran-2-ones, dihydro analogues and photo-dimers” (Bioorg Med Chem, 2012).
pIC50: −log10 of the molar value. Values after ≈ are worked out from the molar mass of the structure shown.

What was measured:
L6 = test: Cytotoxicity against rat L6 myoblasts after 72 hrs by alamar blue assay; assay type: cell-based; settings: L6, 72 h
[1] = Selectivity index, ratio of IC50 for erythrocytic stages chloroquine and pyrimethamine-resistant Plasmodium falciparum K1 to IC50 for rat L6 myoblasts; set-up: reference not given here
Leishmania donovani [2] = test: Antiprotozoal activity against Leishmania donovani MHOM/ET/67/L82 axenic amastigotes after 72 hrs by alamar blue assay; assay type: functional, organism-based; settings: MHOM/ET/67/L82, 72 h
Plasmodium falciparum [3] = test: microbe, parasite or virus in culture; assay type: functional, organism-based; settings: K1
Description: Antiprotozoal activity against erythrocytic stages chloroquine- and pyrimethamine-resistant Plasmodium falciparum K1 assessed as inhibition of [3H]hypoxanthine incorporation pre-incubated for 48 hrs prior [3H]hypoxanthine addition measured after 24 hrs by liquid scintillation counting

[4] = tested on: Trypanosoma brucei rhodesiense; test: Antiprotozoal activity against Trypanosoma brucei rhodesiense STIB900 trypomastigotes after 72 hrs by alamar blue assay; assay type: functional, organism-based; settings: STIB900, 72 h
Trypanosoma cruzi = test: Antiprotozoal activity against Trypanosoma cruzi Tulahuen C2C4 amastigotes infected in rat L6 myoblasts after 96 hrs by CPRG/Nonidet-based spectrophotometry; assay type: functional, organism-based; settings: Tulahuen C2C4, L6, 96 h
Leishmania donovani [5] = test: Antiprotozoal activity against Leishmania donovani; assay type: functional, organism-based
[6] = tested on: Trypanosoma brucei rhodesiense; test: Antiprotozoal activity against Trypanosoma brucei rhodesiense; assay type: functional, organism-based
[7] = tested on: Mycobacterium tuberculosis; test: Antituberculosis activity against Mycobacterium tuberculosis; assay type: functional
Plasmodium falciparum [8] = test: Antiprotozoal activity against chloroquine resistant Plasmodium falciparum K1; assay type: functional, organism-based
Plasmodium falciparum [9] = test: Antiprotozoal activity against Plasmodium falciparum; assay type: functional, organism-based

| SMILES | pIC50 (L6) | Ratio IC50 [1] | pIC50 (Leishmania donovani [2]) | pIC50 (Plasmodium falciparum [3]) | pIC50 [4] | pIC50 (Trypanosoma cruzi) | pIC50 (Leishmania donovani [5]) | pIC50 [6] | MIC [7] | pIC50 (Plasmodium falciparum [8]) | pIC50 (Plasmodium falciparum [9]) |
| --- | --- | --- | --- | --- | --- | --- | --- | --- | --- | --- | --- |
| COC1=CC(=O)O[C@]2(/C=C/c3ccc(OC)c(OC)c3)[C@H]1[C@H](c1ccc(OC)c(OC)c1)[C@H]2c1cc(OC)cc(=O)o1 (relative stereo) | 3.92 | 80 | 4.10 | 5.82 | 4.21 | 3.89 |  |  |  |  |  |
| COc1cc(=O)oc([C@H]2[C@H](c3ccc4ccccc4c3)[C@H](c3cc(OC)cc(=O)o3)[C@H]2c2ccc3ccccc3c2)c1 | 4.02 | 42 | 5.00 | 5.64 | 5.31 | 4.05 |  |  |  |  |  |
| COc1cc(/C=C/c2cccc3ccccc23)oc(=O)c1 | 3.96 | 24 | 4.33 | 5.34 | 4.74 | 4.47 |  |  |  |  |  |
| COc1cc(/C=C/c2ccc(OC)c(OC)c2)oc(=O)c1 | 3.80 | 54 | 3.57 | 5.52 | 4.51 | 3.77 |  |  |  |  |  |
| COc1cc(CCc2cccc(Oc3ccc(C(C)(C)C)cc3)c2)oc(=O)c1 | 4.30 | 7 | 4.82 | 5.14 | 4.19 | 4.44 |  |  |  |  |  |
| COc1cc(CCc2cccc3ccccc23)oc(=O)c1 | 3.96 |  | 4.26 | < 4.74 | 4.07 | 4.12 |  |  |  |  |  |
| COc1cc(CCc2ccccc2)oc(=O)c1 [DIHYDRO-5,6-DEHYDROKAWAIN] | 3.54 |  | 3.72 | < 4.66 |  | 3.62 |  |  |  |  |  |
| COc1cc(/C=C/C=C/c2ccccc2)oc(=O)c1 | 3.72 | 29 | 3.66 | 5.17 | 3.82 | < 3.46 |  |  |  |  |  |
| COc1cc([C@@H]2[C@@H](c3ccccc3)[C@@H](c3ccccc3)[C@@H]2c2cc(OC)cc(=O)o2)oc(=O)c1 | 4.29 | 13 | 4.77 | 5.42 | 4.82 | 4.49 |  |  |  |  |  |
| COC1=CC(=O)O[C@]2(/C=C/c3ccccc3)[C@H]1[C@H](c1ccccc1)[C@H]2c1cc(OC)cc(=O)o1 (relative stereo) | < 3.70 | >28 | 4.57 | 5.15 | 4.89 | 4.55 |  |  |  |  |  |
| COc1cc(/C=C/c2cccc(Oc3ccc(C(C)(C)C)cc3)c2)oc(=O)c1 | 4.19 | 10 | 4.60 | 5.20 | 4.47 | 4.40 |  |  |  |  |  |
| COc1cc(/C=C/c2ccc3c(c2)OCO3)oc(=O)c1 | 4.80 | 3 | 3.64 | 5.25 | 4.33 | 3.74 |  |  |  |  |  |
| COc1cc(/C=C/c2ccc([N+](=O)[O-])cc2)oc(=O)c1 | 3.72 | 32 | 4.31 | 5.22 | 4.42 | 3.62 |  |  |  |  |  |
| COc1cc(CCc2ccc(C(C)(C)C)cc2)oc(=O)c1 | 4.02 | 9 | 4.62 | 4.96 | 4.11 | 4.26 |  |  |  |  |  |
| CCCCCCCC1CC(O)=C(CCCCCC)C(=O)O1 (centres undefined) [PSEUDOPYRONINE B] |  |  |  |  |  |  | 5.32 | 4.38 | 2.7 µM (≈ 0.8 µg/mL) | 4.32 |  |
| CCCCCCc1c(OC)cc(CCCCC)oc1=O |  |  |  |  |  |  |  | 4.85 | 45 µM (≈ 12.6 µg/mL) |  | 4.96 |
| COc1cc(/C=C/c2ccc(C(C)(C)C)cc2)oc(=O)c1 | 4.62 | 4 | 4.70 | 5.28 | 4.36 | 4.59 |  |  |  |  |  |

| SMILES | pIC50 (L6) | Ratio IC50 [1] | pIC50 (Leishmania donovani [2]) | pIC50 (Plasmodium falciparum [3]) | pIC50 [4] | pIC50 (Trypanosoma cruzi) | pIC50 (Leishmania donovani [5]) | pIC50 [6] | MIC [7] | pIC50 (Plasmodium falciparum [8]) | pIC50 (Plasmodium falciparum [9]) |
| --- | --- | --- | --- | --- | --- | --- | --- | --- | --- | --- | --- |
| O=C(Cn1ccnc1[N+](=O)[O-])NCc1ccccc1 [BENZNIDAZOLE] |  |  |  |  |  | 5.85 |  |  |  |  |  |
| COc1cc(/C=C/c2cccc(Oc3ccccc3)c2)oc(=O)c1 | 4.89 | 3 | 4.52 | 5.31 | 5.06 | 4.37 |  |  |  |  |  |
| CCCCCCCCCCCCCCCCOP(=O)([O-])OCC[N+](C)(C)C [MILTEFOSINE] |  |  | 6.30 |  |  |  |  |  |  |  |  |
| COC1=CC(=O)O[C@]2(/C=C/c3ccc(C(C)(C)C)cc3)[C@H]1[C@H](c1ccc(C(C)(C)C)cc1)[C@H]2c1cc(OC)cc(=O)o1 (racemic) | 3.89 | 76 | 5.35 | 5.77 | 4.68 | 4.15 |  |  |  |  |  |
| COc1cc(/C=C/c2ccco2)oc(=O)c1 | 3.85 | 8 | 3.62 | 4.77 | 4.12 | < 3.39 |  |  |  |  |  |
| COc1cc(/C=C/c2ccc3ccccc3c2)oc(=O)c1 | 4.55 | 22 | < 3.49 | 5.89 | 5.57 | < 3.49 |  |  |  |  |  |
| COc1cc(/C=C/c2ccc(/C=C/c3cc(OC)cc(=O)o3)cc2)oc(=O)c1 | < 3.62 | >28 | < 3.62 | 5.07 | 3.92 | < 3.62 |  |  |  |  |  |
| COc1cc(/C=C/c2cccc([N+](=O)[O-])c2)oc(=O)c1 | 3.74 | 15 | 3.57 | 4.92 | 3.54 | < 3.48 |  |  |  |  |  |
| COc1cc(CCc2ccc3c(c2)OCO3)oc(=O)c1 | 3.82 |  | < 3.48 | < 4.74 | < 3.48 | < 3.48 |  |  |  |  |  |
| COc1cc(CCc2ccc3ccccc3c2)oc(=O)c1 | 4.04 | 6 | 4.38 | 4.80 | 4.14 | 4.19 |  |  |  |  |  |
| COc1cc(CCc2ccc(CCc3cc(OC)cc(=O)o3)cc2)oc(=O)c1 | 4.30 | 14 | < 3.62 | 5.44 | 3.70 | < 3.62 |  |  |  |  |  |
| COc1cc(/C=C/C=C/c2ccc(N(C)C)cc2)oc(=O)c1 | 4.59 | 4 | < 3.52 | 5.14 | 3.54 | < 3.52 |  |  |  |  |  |
| COc1cc(CCc2ccc(OC)c(OC)c2)oc(=O)c1 | < 3.51 |  | 3.57 | < 4.77 | 3.70 | < 3.51 |  |  |  |  |  |
| COc1cc(=O)oc([C@H]2[C@H](c3ccc(OC)c(OC)c3)[C@H](c3cc(OC)cc(=O)o3)[C@H]2c2ccc(OC)c(OC)c2)c1 | 4.66 | 7 | 4.12 | 5.51 | 5.21 | 4.42 |  |  |  |  |  |
| COc1cc(/C=C/c2ccccc2)oc(=O)c1 [DESMETHOXYYANGONIN] | 3.80 | 12 | 3.72 | 4.89 | 3.92 | 4.19 |  |  |  |  |  |
| COC1=CC(=O)O[C@]2(/C=C/c3cccc(Oc4ccc(C(C)(C)C)cc4)c3)[C@H]1[C@H](c1cccc(Oc3ccc(C(C)(C)C)cc3)c1)[C@H]2c1cc(OC)cc(=O)o1 (racemic) | < 3.92 | >27 | 4.18 | 5.36 | < 3.92 | < 3.92 |  |  |  |  |  |
| COc1cc([C@@H]2c3cc4c(cc3[C@H](O)[C@H]3COC(=O)[C@H]23)OCO4)cc(OC)c1OC [PODOFILOX] | 8.00 |  |  |  |  |  |  |  |  |  |  |
